Key:
untransformed rat1 cells = test: Growth of untransformed rat1 cells (cell counting); assay type: cell-based, rat; conditions: for effect on the growth of normal rat1 cells: 0.1-50 μM, 3, 7 or 10 days, FIG. 7
Method: (§1) HEC1A, V-raf-3T3 and SV40-CHE cells were grown in Dulbecco's modified Eagle medium (DMEM) containing 10% fetal calf serum (FCS), 4 mM L-glutamine, 10 μg/ml streptomycin and 10 U/ml penicillin. Rat1 and -EJ cells were grown in the same medium except that it was supplemented with 12.5 U/ml nyostatin. RB-22 cells were grown in modified DMEM (1 mM sodium pyruvate, 20 mM sodium bicarbonate)/10% FCS containing 4 mM L-glutamine, […] streptomycin, 10 U/ml penicillin. PC-12 cells were grown in DMEM 15% FCS/5% horse serum and the above noted antibiotics.
(§2) HEC1A cells were plated in 24 well plates at a density of 5×10^3 cells per well and fed with 1 ml of medium. The cells were grown at 37° C. in a humidified atmosphere of 95%/5% air/CO2. All other cell types employed were plated in 24 well plates at a density of 2×10^3 cells per well and fed with the appropriate medium.
Cultures were treated with farnesyl derivatives or with solvent either 3 hrs following plating or one day after plating as indicated. The drugs were prepared in DMSO to yield the final desired drug (0.1-50 μM) concentration and 0.1% DMSO. Control cultures received 0.1% DMSO only. Cultures were fed on days 6, 7 and 9 of the experiment with the drugs or with solvent-containing media.
[…] For counting, cells were detached from plates with trypsin/EDTA, and collected by a low speed spin in the presence of DMEM/10% FCS. The pelleted cells were resuspended in a small volume of DMEM/10% FCS and counted under the microscope. Viability of cells was estimated by staining with (3-(4,5-dimethylthiosol-2-yl)-2,5-diphenyltetrazolium bromide (MTT) and microscopic examination of the stained and unstained cells, or spectrophotometric estimation (OD490, 590) of the total stain in each well. Non viable cells were estimated by the trypan blue exclusion method.
Cells were plated at a density 2×10^3/well and received either solvent or drugs one day later. Following 3, 7, or 10 days of the drugs-treatment as described above, cells were collected and the number of cells in each well was estimated by direct counting. […]

[1] = test system: Ha-ras-transformed rat1 cells; test: Growth of ras-transformed rat1 cells (cell counting); assay type: cell-based, rat; conditions: for EC50: Rattus norvegicus, 168 h, day 7 of drug treatment, estimated from dose response curves, read-out: Inhibition of rab-transformed rat1 cell growth EC50
Text: (§3) The cell lines employed were rat1, -EJ, which are rat1 cells stably expressing Val- 12 activated human Ha-ras gene (Land H. et al., Nature, 304, 596-602, (1983)); V-raf-3T3, which are 3T3 cells stably expressing the V-raf gene (Xu, N., et al., Proc. Natl. Acad. Sci., 90, 6741-6745); RB-22, which are 3T3 cells stably expressing the rat Erb-B2 gene (Peles, et al., EMBO J., 10, 2077-2086 (1991)) CO6O cells (SV40-CHO), which are CHE cells stably expressing the SV-40 T-antigen gene (Lavi, Proc. Natl. Acad. Sci., 78, 6144-6148 (1981)); human endometrial carcinoma cell line HEC1A, which are cells that express activated K-ras (Enomoto T., Cancer Res., 50, 6139-6145; mouse B16F10 melanoma cells, rat pheochromocytoma PC12 cells, […] cells CHE and COS cells.
as §1, §2
Cultures were treated with farnesyl derivatives or with solvent either 3 hrs following plating or one day after plating as indicated. […] Control cultures received 0.1% DMSO only. Cultures were fed on days 6, 7 and 9 of the experiment with the drugs or with solvent-containing media.
Cells were counted following 3, 7 and 10 days of beginning of treatments with drugs. For counting, cells were detached from plates with trypsin/EDTA, and collected by a low speed spin in the presence of DMEM/10% FCS. The pelleted cells were resuspended in a small volume of DMEM/10% FCS and counted under the microscope. Viability of cells was estimated by staining with (3-(4,5-dimethylthiosol-2-yl)-2,5-diphenyltetrazolium bromide (MTT) and microscopic examination of the stained and unstained cells, or spectrophotometric estimation (OD490, 590) of the total stain in each well. Non viable cells were estimated by the trypan blue exclusion method.
Cells were plated at a density 2×10^3/well and received either solvent or drugs one day later. Following 3, 7, or 10 days of the drugs-treatment as described above, cells were collected and the number of cells in each well was estimated by direct counting. […] The effect was apparent after a delay of at least three days. About 40-60% inhibition of cell growth was induced either by FTA or by FTS observed on days 7 and 10 of the treatment.

Bulb-C mice = test: in vivo
Method: (§4) Seven groups of five mice were used. The mice received a single i.p. dose of FTS in DMSO or the solvent only. Doses used in this experiment ranged from 0.5 mg/kg to 268 mg/kg.

in vivo = conditions: Bulb-C, mouse, in vivo, ip
Method: as §4

HEC1A cells = test: Transformed phenotype (multi-layered clumps) of HEC1A cells; assay type: cell-based, human
Text: HEC1A cells also grow in multi-layered clumps (FIG. 10A).

[2] = test system: V-raf transformed 3T3 cells; test: Growth of V-raf transformed cells; assay type: cell-based; conditions: 25 μM
Text: as §3
as §1, with “PC-12 cells were grown in DMEM 15% FCS/5% horse serum and the above noted antibiotics.” left out
The potent PPMTase inhibitor FTS was used to examine selectivity of the drugs towards ras-dependent growth-signaling pathways. […] Cells were counted on day 5 of the experiment.

[3] = test system: Ha-ras-transformed rat1 cells; test: Transformed phenotype (multi-layered clumps) of ras-transformed rat1 cells; assay type: cell-based, rat; conditions: 5 days
Text: The two compounds had no effect on the morphology of the non-transformed cells. (FIG. 9B and 9C).

C57 black mice = conditions: mouse, in vivo
Method: Toxicity tests in intact animals were performed with C57 black and with bulb-C mice.
Four groups, each comprising 9 mice, were used. Animals of group one received 100 μl s.c. injections of 150 μM FTS in salient solution containing 1% DMSO (0.21 mg drug/kg body weight). The drug was injected every 3 days for 2 weeks. Group two, which served as controls, received the solvent/saline solution for the same period of time.

CC(C)=CCC/C(C)=C/CC/C(C)=C/CSCC(=O)O [FTA, S-trans, trans-farnesylthioacetic acid, reference compound]
effect on the growth of normal rat1 cells (untransformed rat1 cells): neither FTA nor FTS has any significant effect | EC50 [1]: 25 to 50 µM | drug concentration of maximum inhibition of cell growth ([1]; days 7 and 10 of treatment): 50 µM

CC(C)=CCC/C(C)=C/CC/C(C)=C/CSc1ccccc1C(=O)O [FTS, (3,7,11-trimethyl-dodeca-2,6,10-trienyl)-2-thiobenzoic acid]
Number of live mice (3 weeks following injection) (Bulb-C mice; 0.5 mg/kg single i.p.): 5/5 | Number of live mice (3 weeks following injection) (Bulb-C mice; 5.0 mg/kg single i.p.): 5/5 | Number of live mice (3 weeks following injection) (Bulb-C mice; 10.0 mg/kg single i.p.): 5/5 | survival (Bulb-C mice; 50 mg/kg or lower single i.p.): all mice survived | Number of live mice (3 weeks following injection) (Bulb-C mice; 50.0 mg/kg single i.p.): 5/5 | mice out of 5 died (Bulb-C mice; 134 mg/kg single i.p.): 2 | Number of live mice (3 weeks following injection) (Bulb-C mice; 134.0 mg/kg single i.p.): 3/5 | Number of live mice (3 weeks following injection) (Bulb-C mice; 268.0 mg/kg single i.p.): 0/5 | mortality (Bulb-C mice; highest dose (268 mg/kg) single i.p.): all mice died | LD50 at 3 weeks (in vivo): > 100 mg/kg | effect on multi-layered clumps formation (HEC1A cells; 10 μM, FIG. 10B): significant reversal of the multi-layered clumps formation | effect on multi-layered clumps formation (HEC1A cells; 50 μM, FIG. 10C): significant reversal of the multi-layered clumps formation | effect on the growth of normal rat1 cells (untransformed rat1 cells): neither FTA nor FTS has any significant effect | Number of cells (% of control) (untransformed rat1 cells; Ras1, 25 μM, day 5): 97 ± 10 % of control | effect on growth of V-raf transformed cells [2]: no effects | Number of cells (% of control) ([2]; Y-ref transformed 3T2, day 5): 93 ± 8 % of control | active at concentrations times lower than those of FTA [1]: 10 times | Number of cells (% of control) ([1]; Hs-cis-transformed rat1, 25 μM, day 5): 52 ± 4 % of control | EC50 [1]: 5 to 10 µM | inhibition of ras-transformed rat1 cell-growth ([1]; drugs on the very same day of plating): observed already after 3 days in culture | effect on transformed phenotype ([3]; 5 μM, FIG. 9E): reversed the transformed phenotype | effect on transformed phenotype ([3]; 10 μM, FIG. 9F): reversed the transformed phenotype | toxicity to C57 mice (C57 black mice): not toxic

Reference: patent USRE39682E1, “Farnesyl derivatives and pharmaceutical compositions containing them” (Ramot at Tel Aviv University Ltd., priority 1993, dated 2007)
